From patent US4310533A, “Guanidinobenzoic acid derivatives” (Ono Pharmaceutical Co., Ltd., priority 1979, dated 1982)
pIC50: −log10 of the molar value. Counter-ions that a name gives are not always drawn.

What was measured:
[1] = molecular target: T1, trypsin (Bos taurus, UniProt P00760); assay: Inhibitory activity on trypsin in vitro (hydrolysis of p-tosylarginine methyl ester); format: biochemical; details: trypsin 0.5 μg, 37° C., 30 minutes, read-out: 50% Inhibition Concentration (molar concentration), Anti-Trypsin
T1 sequence (P00760 24-246): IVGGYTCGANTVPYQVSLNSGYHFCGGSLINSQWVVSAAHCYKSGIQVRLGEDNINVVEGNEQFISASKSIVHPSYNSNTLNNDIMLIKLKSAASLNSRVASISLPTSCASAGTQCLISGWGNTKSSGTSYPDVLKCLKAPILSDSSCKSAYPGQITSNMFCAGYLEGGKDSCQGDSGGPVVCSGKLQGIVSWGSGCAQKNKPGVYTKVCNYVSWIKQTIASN
Procedure: The inhibitory activities on trypsin and plasmin in vitro were determined by the methods of M. Muramatsu et al. described in the Journal of Biochemistry, 58, 214 (1965) for trypsin, and ibid., 57, 402 (1964) for plasmin, and the results are shown in Table 1
^(1) The concentration of the compounds represented by the general
formula (I) at which the activity of trypsin 0.5 μg to hydrolyze
ptosylarginine methyl ester was 50% inhibited, when treated at 37°

[2] = molecular target: T2, plasmin (Homo sapiens, UniProt P00747); assay: Inhibitory activity on plasmin in vitro (euglobulin/streptokinase/fibrinogen system); format: biochemical; details: human euglobulin, streptokinase, fibrinogen, borate saline buffer pH 7.4, 37° C., 30 minutes; read-out: 50% Inhibition Concentration (molar concentration), Anti-Plasmin
T2 construct: from tissue; host or cells: human euglobulin (plasma fraction), with streptokinase added
Procedure: ^(2) The concentration of the compounds represented by the general
formula (I) at which the activity of plasmin was 50% inhibited, when
reacted in a system comprising 0.1 ml of humaneuglobulin (10 fold
dilution), 0.1 ml of streptokinase (2,000 unit/ml), 0.4 ml of fibrinogen
(4% solution), 0.3 ml of a 0.1M borate saline buffer solution (pH 7.4) an
0.1 ml of a solution of each of the compounds at 37° C. for 30

[3] = Solubility in water; format: physicochemical
[4] = test system: plasmin; details: prior art; cited from earlier work

T2 sequence (P00747 581-810 limits assumed): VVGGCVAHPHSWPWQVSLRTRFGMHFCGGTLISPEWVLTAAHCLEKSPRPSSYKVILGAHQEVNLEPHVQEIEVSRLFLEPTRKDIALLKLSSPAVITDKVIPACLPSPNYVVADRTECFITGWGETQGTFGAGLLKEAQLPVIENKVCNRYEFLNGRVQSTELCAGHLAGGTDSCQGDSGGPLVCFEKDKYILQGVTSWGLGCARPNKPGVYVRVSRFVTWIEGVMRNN
T2 sequence (P00747 97-580 limits assumed): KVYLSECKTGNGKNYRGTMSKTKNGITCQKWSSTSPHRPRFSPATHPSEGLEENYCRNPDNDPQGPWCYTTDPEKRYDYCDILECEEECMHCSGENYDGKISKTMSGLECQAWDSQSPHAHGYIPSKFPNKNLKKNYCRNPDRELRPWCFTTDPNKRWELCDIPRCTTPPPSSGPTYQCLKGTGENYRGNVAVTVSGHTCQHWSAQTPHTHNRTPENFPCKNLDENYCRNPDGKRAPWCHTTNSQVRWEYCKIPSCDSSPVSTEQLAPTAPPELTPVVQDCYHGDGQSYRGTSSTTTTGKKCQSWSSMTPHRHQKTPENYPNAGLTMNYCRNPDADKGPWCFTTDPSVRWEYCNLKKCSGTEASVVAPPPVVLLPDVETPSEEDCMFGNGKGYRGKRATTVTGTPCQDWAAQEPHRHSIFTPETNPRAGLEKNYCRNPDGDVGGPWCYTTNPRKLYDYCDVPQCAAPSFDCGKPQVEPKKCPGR

| Compound | pIC50 [1] | pIC50 [2] | solubility [3] | anti-plasmin activity (in words) [4] |
| --- | --- | --- | --- | --- |
| CS(=O)(=O)O.N=C(N)Nc1ccc(C(=O)Oc2ccc(C(=O)OCC(=O)N3CCCCC3)cc2)cc1 [Compound No. 1, piperidinocarbonylmethyl 4-(4-guanidinobenzoyloxy)benzoate mesylate] | 9.30 | 9.35 | 20 mM | – |
| N=C(N)Nc1ccc(C(=O)Oc2ccc(C(=O)OCC(=O)NC3CCCCC3)cc2)cc1 [Compound No. 2, N-cyclohexylcarbamoylmethyl 4-(4-guanidinobenzoyloxy)benzoate mesylate] | 9.74 | 9.89 | 20 mM | – |
| NC[C@H]1CC[C@H](C(=O)O)CC1 [Compound No. 3, trans-4-aminomethylcyclohexanecarboxylic acid] | – | – | – | relatively low activities |
